Test results taken from patent publication US7109193B2, “Tricyclic diazepines tocolytic oxytocin receptor antagonists” (Wyeth, priority 2001, dated 2006).

Target: T1, human oxytocin receptor (Homo sapiens, UniProt P30559)
T1 construct: host or cells: CHO cells (pcDNA3.1 vector)
T1 sequence (P30559 1-389): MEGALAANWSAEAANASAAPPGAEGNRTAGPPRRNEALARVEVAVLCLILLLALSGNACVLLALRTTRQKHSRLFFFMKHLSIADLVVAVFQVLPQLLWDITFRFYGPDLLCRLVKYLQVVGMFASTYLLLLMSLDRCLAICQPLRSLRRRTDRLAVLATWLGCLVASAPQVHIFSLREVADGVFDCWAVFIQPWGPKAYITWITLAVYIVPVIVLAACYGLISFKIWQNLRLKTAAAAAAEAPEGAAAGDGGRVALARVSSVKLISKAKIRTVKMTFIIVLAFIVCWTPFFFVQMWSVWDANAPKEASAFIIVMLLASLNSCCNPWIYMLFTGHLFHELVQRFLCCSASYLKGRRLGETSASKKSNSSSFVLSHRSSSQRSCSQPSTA
Experiment: Oxytocin binding in Chinese Hamster Ovary cell membranes expressing human oxytocin receptors
Settings: 100 nM, CHO cell membranes, [3H]oxytocin, values without parentheses
Description: Oxytocin Binding in Chinese Hamster Ovary Cell Membranes Expressing Human Oxytocin Receptors
The trypsin is removed by aspiration and the cells dislodged by tapping. Cell Culture medium (e.g. 30 mL for 1:30 split) is immediately added and mixed well to inactivate trypsin. 1 mL of detached cells is added to new culture flasks containing fresh Cell Culture medium (e.g. into 25 mL per T-150 flask), and mixed gently. The cells are incubated at 37° C. in 5% CO2. The medium is changed at 3 to 4 days interval (or as appropriate). […] All steps are done under sterile conditions. B. Membrane Preparation: The cells are washed twice gently with Hank's Balanced Salt solution (e.g., use 10 mL per T-150 flask). […] The contents are transferred to centrifuge tubes (50 mL size) kept in ice bath. All subsequent steps are done at 4° C. The tubes are centrifuged at 300×g for 15 min (1380 rpm on SORVAL, Model RT6000D, using rotor for 50 mL tubes). The supernatant is discarded and the cells suspended in homogenizing buffer (10 mM Tris-HCl containing 0.25 M sucrose and 1 mM EDTA, pH 7.4) ensuring that the volume of the buffer is about ten times the volume of the cell pellet. The cells are pooled into a centrifuge tube (50 mL) and homogenized with a Polytron at setting 6 for 10 sec. The homogenate is transferred into a Potter-Elvjehm homogenizer and homogenized with 3 strokes. The homogenate is centrifuged at 1500×g for 10 min at 4° C. (3100 rpm using SORVAL, model RT6000D, using rotor for 50 mL tubes). The pellet is discarded. The supernatant is centrifuged at 100,000×g for 60 min. at 4° C. (Beckman L8-80M ultracentrifuge; spin at 37,500 rpm with rotor type 70 Ti for 50 mL tubes; 38,000 rpm with type 80Ti for 15 mL tubes; or 35,800 rpm with rotor type 45Ti). The supernantant is discarded and the pellet suspended in 3 to 4 mL of Tris buffer (50 mM TRIS-HCl, pH 7.4). The protein content is estimated by the Bradford or Lowry method. The volume of the membrane suspension is adjusted with the membrane buffer (50 mM Tris-HCl containing 0.1% BSA and 0.1 mM PMSF) to give 3.0 mg/mL (or as appropriate) of protein. The membranes are aliquoted and stored at −70° C. C. Radioligand Binding Assay: In wells of a 96-well format microtiter plate, is added 90, 110 or 130 μL (to make up a final volume of 200 μL) of assay buffer containing 50 mM of Tris-HCl (pH 7.4), […], 1 mg % aprotinin, 1 mg % leupeptin, 2 mg % 1,10-phenanthroline, 10 mg % trypsin inhibitor, and 0.1 mM PMSF. The inhibitors are added on the day of the experiment. The components are mixed at room temperature, and then kept in ice bath following adjustment of the pH to 7.4. […] For oxytocin and other peptide ligands, 20 μL of 50% DMSO is added and the assay buffer volume is adjusted accordingly. To each well is added 50 μL of frozen membrane suspension thawed immediately prior to use and diluted in assay buffer to the required concentration (equivalent to 25 to 50 μg of protein/well as needed). 20 μL of 8 nM [^3H]oxytocin in the assay buffer, prepared just before use is added and incubated at room temperature for 60 min. shaking the plate on a mechanical shaker for the first 15 min. The incubation is stopped by rapid filtration of the plate contents followed by washing with ice-cold buffer (50 mM Tris-HCl, pH 7.4) using a cell harvester (Tomtek and Printed filtermat-B filter paper). The filter paper is thoroughly dried (7–12 min. in a microwave oven) and impregnated with MeltiLex B/H melt-on scintillation wax sheets and the radioactivity counted in a betaplate scintillation counter.
Binding data is either reported as percent inhibition at a certain concentration or if an IC50 was calculated, as a nanomolar concentration.

| Compound | OT % inhibition @ 100% nM [%] |
| --- | --- |
| COc1ccccc1-c1ccc(C(=O)N2Cc3ccc(C(=O)N4CCC(N5CCCC5)CC4)n3Cc3ccccc32)cc1OC [Example 145, {10-[(2,2′-Dimethoxy[1,1′-biphenyl]4-yl)carbonyl]-10,11-dihydro-5H-pyrrolo[2,1-c][1,4]benzodiazepin-3-yl}[4-(1-pyrrolidinyl)-l-piperidinyl]methanone] | 53 |

Same assay, conditions: 100 nM, CHO cell membranes, [3H]oxytocin, values without parentheses, read-out: OT % inhibition @ 100% nM

| Compound | inhibition at 0.1 µM [%] |
| --- | --- |
| Cc1ccccc1-c1ccc(C(=O)N2Cc3ccc(C(=O)N4CCC(N5CCCC5)CC4)n3Cc3ccccc32)cc1C [Example 138, {10-[(2,2′-Dimethyl[1,1′-biphenyl]-4-yl)carbonyl]-10,11-dihydro-5H-pyrrolo[2,1-c][1,4]benzodiazepin-3-yl}[4-(1-pyrrolidinyl)-1-piperidinyl]methanone] | 95 |
| COc1cccc(-c2ccc(C(=O)N3Cc4ccc(C(=O)N5CCC(N6CCCC6)CC5)n4Cc4ccccc43)cc2C)c1 [Example 139, {10-[(3′-Methoxy-2-methyl[1,1′-biphenyl]-4-yl)carbonyl]-10,11-dihydro-5H-pyrrolo[2,1-c][1,4]benzodiazepin-3-yl}[4-(1-pyrrolidinyl)-1-piperidinyl]methanone] | 76 |
| COc1ccccc1-c1ccc(C(=O)N2Cc3ccc(C(=O)N4CCC(N5CCCC5)CC4)n3Cc3ccccc32)cc1 [Example 140, {10-[(2′-Methoxy[1,1′-biphenyl]-4-yl)carbonyl]-10,11-dihydro-5H-pyrrolo[2,1-c][1,4]benzodiazepin-3-yl}[4-(1-pyrrolidinyl)-1-piperidinyl]methanone] | 87 |
| Cc1ccccc1-c1ccc(C(=O)N2Cc3ccc(C(=O)N4CCC(N5CCCC5)CC4)n3Cc3ccccc32)cc1 [Example 141, {10-[(2′-Methyl[1,1′-biphenyl]-4-yl)carbonyl]-10,11-dihydro-5H-pyrrolo[2,1-c][1,4]benzodiazepin-3-yl}[4-(1-pyrrolidinyl)-1-piperidinyl]methanone] | -6 |
| COc1cc(C(=O)N2Cc3ccc(C(=O)N4CCC(N5CCCC5)CC4)n3Cc3ccccc32)ccc1-c1ccccc1C [Example 142, {10-[(2-Methoxy-2′-methyl[1,1′-biphenyl]-4-yl)carbonyl]-10,11-dihydro-5H-pyrrolo[2,1-c][1,4]benzodiazepin-3-yl}[4-(1-pyrrolidinyl)-1-piperidinyl]methanone] | 83 |
| COc1cccc(-c2cc(OC)c(C(=O)N3Cc4ccc(C(=O)N5CCC(N6CCCC6)CC5)n4Cc4ccccc43)cc2Cl)c1 [Example 143, {10-[(6-Chloro-3,3′-dimethoxy[1,1′-biphenyl]-4-yl)carbonyl]-10,11-dihydro-5H-pyrrolo[2,1-c][1,4]benzodiazepin-3-yl}[4-(1-pyrrolidinyl)-1-piperidinyl]methanone] | 69 |
| COc1cc(C(=O)N2Cc3ccc(C(=O)N4CCC(N5CCCC5)CC4)n3Cc3ccccc32)ccc1-c1cccc2ccccc12 [Example 144, {10-[3-Methoxy-4-(1-naphthyl)benzoyl]-10,11-dihydro-5H-pyrrolo[2,1-c][1,4]benzodiazepin-3-yl}[4-(1-pyrrolidinyl)-1-piperidinyl]methanone] | 53 |
| COc1cccc(-c2ccc(C(=O)N3Cc4ccc(C(=O)N5CCC(N6CCCC6)CC5)n4Cc4ccccc43)cc2OC)c1 [Example 146, {10-[(2,3′-Dimethoxy[1,1′-biphenyl]-4-yl)carbonyl]-10,11-dihydro-5H-pyrrolo[2,1-c][1,4]benzodiazepin-3-yl}[4-(1-pyrrolidinyl)-1-piperidinyl]methanone] | 78 |
| O=C(c1ccc2n1Cc1ccccc1N(C(=O)c1ccc(-c3cccc4ccccc34)cc1Cl)C2)N1CCC(N2CCCC2)CC1 [Example 147, {10-[2-Chloro-4-(1-naphthyl)benzoyl]-10,11-dihydro-5H-pyrrolo[2,1-c][1,4]benzodiazepin-3-yl}[4-(1-pyrrolidinyl)-1-piperidinyl]methanone] | 33 |
| Cc1cc(C(=O)N2Cc3ccc(C(=O)N4CCC(N5CCCC5)CC4)n3Cc3ccccc32)ccc1-c1ccccc1C(F)(F)F [Example 148, (10-{[2-Methyl-2′-(trifluoromethyl)[1,1′-biphenyl]-4-yl]carbonyl}-10,11-dihydro-5H-pyrrolo[2,1-c][1,4]benzodiazepin-3-yl)[4-(1-pyrrolidinyl)-1-piperidinyl]methanone] | 78 |
| COc1ccccc1-c1ccc(C(=O)N2Cc3ccc(C(=O)NCCN4CCCCC4)n3Cc3ccccc32)cc1C [Example 149, 10-[(2′-Methoxy-2-methyl[1,1′-biphenyl]-4-yl)carbonyl]-N-[2-(1-piperidinyl)ethyl]-10,11-dihydro-5H-pyrrolo[2,1-c][1,4]benzodiazepine-3-carboxamide] | 75 |
| Cc1ccccc1-c1ccc(C(=O)N2Cc3ccc(C(=O)NCCN4CCCCC4)n3Cc3ccccc32)cc1C [Example 150, 10-[(2,2′-Dimethyl[1,1′-biphenyl]-4-yl)carbonyl]-N-[2-(1-piperidinyl)ethyl]-10,11-dihydro-5H-pyrrolo[2,1-c][1,4]benzodiazepine-3-carboxamide] | 75 |
| COc1cccc(-c2ccc(C(=O)N3Cc4ccc(C(=O)NCCN5CCCCC5)n4Cc4ccccc43)cc2C)c1 [Example 151, 10-[(3′-Methoxy-2-methyl[1,1′-biphenyl]-4-yl)carbonyl]-N-[2-(1-piperidinyl)ethyl]-10,11-dihydro-5H-pyrrolo[2,1-c][1,4]benzodiazepine-3-carboxamide] | 47 |
| COc1ccccc1-c1ccc(C(=O)N2Cc3ccc(C(=O)NCCN4CCCCC4)n3Cc3ccccc32)cc1 [Example 152, 10-[(2′-Methoxy[1,1′-biphenyl]-4-yl)carbonyl]-N-[2-(1-piperidinyl)ethyl]-10,11-dihydro-5H-pyrrolo[2,1-c][1,4]benzodiazepine-3-carboxamide] | 63 |
| Cc1ccccc1-c1ccc(C(=O)N2Cc3ccc(C(=O)NCCN4CCCCC4)n3Cc3ccccc32)cc1 [Example 153, 10-[(2′-Methyl[1,1′-biphenyl]-4-yl)carbonyl]-N-[2-(1-piperidinyl)ethyl]-10,11-dihydro-5H-pyrrolo[2,1-c][1,4]benzodiazepine-3-carboxamide] | 60 |
| COc1cc(C(=O)N2Cc3ccc(C(=O)NCCN4CCCCC4)n3Cc3ccccc32)ccc1-c1ccccc1C [Example 154, 10-[(2-Methoxy-2′-methyl[1,1′-biphenyl]4-yl)carbonyl]-N-[2-(1-piperidinyl)ethyl]-10,11-dihydro-5H-pyrrolo[2,1-c][1,4]benzodiazepine-3-carboxamide] | 54 |
